In paper PMC5807507, “Crystal structures of a bacterial dipeptidyl peptidase IV reveal a novel substrate recognition mechanism distinct from that of mammalian orthologues” (Scientific Reports, 2018) one finds IC50 and Ki data, which are given here for eight compounds.

In general, IC50 refers to the point on the concentration scale where inhibition reaches its midpoint. A lower IC50 goes with higher potency.

Read-outs that look alike come from different tables or passages of the source. Bounds are passed on as bounds.

Experiment [1] has as its target T1, PmDAP IV (Pseudoxanthomonas mexicana, UniProt Q6F3I7).
T1 construct: gene dap4; M12I lies in the removed signal; no tag; 723 residues, 82-kDa; homodimer; crystal model Ala22-Pro745
Nature of the experiment: biochemical. The protocol: Inhibitor sensitivities of PmDAP IV and human DPP IV Gliptins and diprotin A were purchased from NAMIKI SHOJI Co., Ltd. (Tokyo, Japan) and Peptide Institute, Inc. (Osaka, Japan), respectively. Half-maximal inhibitory concentration (IC50) values were determined by fitting to a sigmoid curve (4-parameter logistic curve) using ImageJ[73]. […] Inhibitor concentrations for PmDAP IV were 0.78, 1.56, 3.13, 6.25, 12.5, 25, 50 and 100 µM, and those for human DPP IV were 0.78, 1.56, 3.13, 6.25, 12.5, 25, 50 and 100 nM. Standard deviations were calculated from three independent experiments. Fluorescence intensity was measured with excitation at 355 nm and emission at 460 nm using an Infinite 200 PRO microplate reader. Inhibition constants (Ki) were calculated using the Cheng-Prusoff equation[74]. Arg106 of PmDAP IV, which is involved in the recognition of the carbonyl group of the P2 residue of the substrate peptide, was mutated to Ala or Lys. The mutants were expressed and purified using the method described above for wild-type PmDAP IV. Recombinant human DPP IV was purchased from ATGen Co., Ltd. (Los Angeles, USA). Kinetic parameters were determined by fitting the experimental data to the Michaelis–Menten equation using Excel Solver (Microsoft) by nonlinear least squares fitting for different concentrations (0.78, 1.56, 3.13, 6.25, 12.5, 25, 50 and 100 µM) of glycyl-L-proline 4-methylcoumaryl-7-amide (Gly-Pro-MCA, Peptide Institute) as a substrate. The enzyme reaction was performed in a reaction buffer containing 50 mM sodium phosphate buffer pH 8.0, 5 mM EDTA and 0.005% Tween 20 at 298 K for 20 min, and standard deviations were calculated from three independent experiments. The fluorescence intensity of the released MCA was measured with excitation at 355 nm and emission at 460 nm using an Infinite 200 PRO microplate reader (TECAN).
Target sequence in this assay (Q6F3I7 22-745 limits assumed): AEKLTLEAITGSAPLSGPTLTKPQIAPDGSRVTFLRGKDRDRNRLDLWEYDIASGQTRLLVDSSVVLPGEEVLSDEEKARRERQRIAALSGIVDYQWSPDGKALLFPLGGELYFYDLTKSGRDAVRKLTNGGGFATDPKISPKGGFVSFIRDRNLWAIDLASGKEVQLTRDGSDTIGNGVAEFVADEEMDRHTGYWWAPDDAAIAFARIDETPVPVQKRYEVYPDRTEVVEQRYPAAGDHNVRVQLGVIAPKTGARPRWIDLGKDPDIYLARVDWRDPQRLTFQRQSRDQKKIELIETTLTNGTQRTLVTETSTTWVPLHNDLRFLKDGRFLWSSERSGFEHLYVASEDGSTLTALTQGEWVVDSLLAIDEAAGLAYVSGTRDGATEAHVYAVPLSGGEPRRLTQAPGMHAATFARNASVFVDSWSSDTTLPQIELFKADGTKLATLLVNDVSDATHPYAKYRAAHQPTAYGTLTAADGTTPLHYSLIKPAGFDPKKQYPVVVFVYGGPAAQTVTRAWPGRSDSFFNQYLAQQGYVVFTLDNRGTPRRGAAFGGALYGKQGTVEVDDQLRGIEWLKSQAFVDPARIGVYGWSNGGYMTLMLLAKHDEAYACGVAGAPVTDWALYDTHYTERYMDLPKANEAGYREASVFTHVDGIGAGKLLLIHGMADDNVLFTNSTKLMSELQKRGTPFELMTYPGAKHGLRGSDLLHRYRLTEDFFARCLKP

Experiment [2] has as its target T1, PmDAP IV. Nature of the experiment: Gly-Pro-MCA fluorescence hydrolysis inhibition; Ki by Cheng-Prusoff. The format is biochemical. The source says:
Gly-Pro-MCA fluorescence hydrolysis inhibition; Ki by Cheng-Prusoff on PmDAP IV
Target sequence in this assay (Q6F3I7 22-745): as the sequence (Q6F3I7 22-745 limits assumed) above

For the compound `N#C[C@@H]1C[C@@H]2C[C@@H]2N1C(=O)[C@@H](N)C12CC3CC(CC(O)(C3)C1)C2` [Saxagliptin], the IC50 in experiment [1] worked out at 11.1 ± 0.8 µM. The compound also showed a Ki in experiment [2] of 1.85 ± 0.13 µM.

Turning to `N#C[C@@H]1CCCN1C(=O)CNC12CC3CC(CC(O)(C3)C1)C2` [Vildagliptin], the IC50 in experiment [1] was determined as 18.8 ± 2.4 µM. Besides, in experiment [2], the Ki amounted to 3.07 ± 0.39 µM. For `N[C@@H](CC(=O)N1CCn2c(nnc2C(F)(F)F)C1)Cc1cc(F)c(F)cc1F` [Sitagliptin], in that order: 24.6 ± 3.6 µM and 4 ± 0.59 µM.

On to `Cc1cc2ncc(C(=O)NCC(C)(C)NCC(=O)N3CCC[C@H]3C#N)cn2n1` [Anagliptin], for which the IC50 in experiment [1] came to 24.5 ± 0.4 µM. Besides, the Ki in experiment [2] (read-out: PmDAP IV / Ki) came to 3.99 ± 0.07 µM. In experiment [1], `CS(=O)(=O)n1cc2c(n1)CN([C@H]1CO[C@H](c3cc(F)ccc3F)[C@@H](N)C1)C2` [Omarigliptin] showed an IC50 above 100 µM. In addition, the Ki in experiment [2] (read-out: PmDAP IV / Ki) worked out at 23.8 ± 3.8 µM. For the compound `Cc1cc(N2CCN([C@@H]3CN[C@H](C(=O)N4CCSC4)C3)CC2)n(-c2ccccc2)n1` [Teneligliptin], in experiment [2] (read-out: PmDAP IV / Ki), the Ki came out at 2.34 ± 0.09 µM. For the compound `Cn1c(=O)cc(N2CCC[C@@H](N)C2)n(Cc2cc(F)ccc2C#N)c1=O` [Trelagliptin], the IC50 in experiment [1] was above 100 µM. In experiment [1], `CC#CCn1c(N2CCC[C@@H](N)C2)nc2c1c(=O)n(Cc1nc(C)c3ccccc3n1)c(=O)n2C` [Linagliptin] returned an IC50 above 100 µM. For the same compound, the Ki in experiment [2] (read-out: PmDAP IV / Ki) was 30 ± 1.16 µM.
